Data reported in ChEMBL document CHEMBL1137895, “Synthesis and activity of 2-[4-(4-[3H]-2-cyanophenyl)piperazinyl]-N-(2,4,6-[3H]3-3-methylphenyl)acetamide: a selective dopamine D4 receptor agonist and radioligand” (Bioorg Med Chem Lett, 2004).

How the values were obtained:
D(4) dopamine receptor [1] = molecular target: T1, D(4) dopamine receptor (Homo sapiens, UniProt P21917); experiment: Agonist activity was calculated in calcium flux assay using HEK293 cells co-transfected with human Dopamine receptor D4.4 and Galphaqo5; format: functional, cell-based
T1 sequence (P21917 whole entry): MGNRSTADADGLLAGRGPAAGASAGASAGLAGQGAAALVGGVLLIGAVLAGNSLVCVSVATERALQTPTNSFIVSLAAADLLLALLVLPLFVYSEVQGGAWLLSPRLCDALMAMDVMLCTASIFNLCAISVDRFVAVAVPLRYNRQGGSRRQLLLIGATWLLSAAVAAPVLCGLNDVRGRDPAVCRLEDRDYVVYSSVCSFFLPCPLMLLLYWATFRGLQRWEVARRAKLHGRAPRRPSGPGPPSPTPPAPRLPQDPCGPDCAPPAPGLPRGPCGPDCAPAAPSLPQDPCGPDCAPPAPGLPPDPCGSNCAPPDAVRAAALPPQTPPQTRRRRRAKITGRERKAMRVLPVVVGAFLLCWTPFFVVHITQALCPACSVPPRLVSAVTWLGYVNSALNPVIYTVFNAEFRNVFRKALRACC

D(4) dopamine receptor [2] = molecular target: T1, D(4) dopamine receptor; experiment: In vitro ability to inhibit [3H]spiperone binding to human Dopamine receptor D4.4
D(4) dopamine receptor [3] = molecular target: T1, D(4) dopamine receptor; experiment: In vitro ability to inhibit [3H]6b binding to human Dopamine receptor D4.4
D(4) dopamine receptor [4] = molecular target: T1, D(4) dopamine receptor; experiment: In vitro ability to inhibit [3H]spiperone binding to human Dopamine receptor D4.4 allele
[5] = molecular target: T2, D(4) dopamine receptor (Homo sapiens) (UniProt P21917); experiment: Efficacy in calcium flux assay using HEK293 cells co-transfected with human Dopamine receptor D4.4 and G-alpha-qo5 relative to 10 uM dopamine; format: functional, cell-based
T2 sequence (whole entry): T1 sequence (P21917 whole entry)

In the case of `COc1cccc(N2CCN(CC(=O)Nc3cccc(C)c3)CC2)c1`, the EC50 (D(4) dopamine receptor [1]) is reported as over 10000 nM, the Ki (D(4) dopamine receptor [2]) is reported as 46 nM and the Ki (D(4) dopamine receptor [3]) is reported as 39.1 nM.
With `Cc1cccc(NC(=O)CN2CCN(c3ccc(F)cc3)CC2)c1` the EC50 (D(4) dopamine receptor [1]) was over 10000 nM, the Ki (D(4) dopamine receptor [2]) was 61.9 nM and the Ki (D(4) dopamine receptor [3]) was 90.7 nM.
For `COc1ccccc1N1CCN(CC(=O)Nc2cccc(C)c2)CC1`, the Ki (D(4) dopamine receptor [4]) was 0.7 nM, the EC50 (D(4) dopamine receptor [1]) was 26.8 nM and the E [5] was 60%. The Ki (D(4) dopamine receptor [3]) was 1.8 nM.
Work on `COc1ccc(N2CCN(CC(=O)Nc3cccc(C)c3)CC2)cc1` yielded an EC50 (D(4) dopamine receptor [1]) of over 10000 nM, a Ki (D(4) dopamine receptor [2]) of 101 nM and a Ki (D(4) dopamine receptor [3]) of 88.9 nM.
Work on `Cc1cc(NC(=O)CN2CCN(c3ccc(Br)cc3C#N)CC2)ccc1Br` yielded an EC50 (D(4) dopamine receptor [1]) of over 10000 nM, a Ki (D(4) dopamine receptor [2]) of 54.2 nM and a Ki (D(4) dopamine receptor [3]) of 14 nM.
